The text below walks through data of ChEMBL document CHEMBL1138260, “The first biologically active synthetic analogues of FK228, the depsipeptide histone deacetylase inhibitor” (J Med Chem, 2007).

For one test, the target named is Histone deacetylase. The experiment in a line: Inhibition of HDAC in HeLa nuclear extract in presence of DTT. In kind it is protein assay, Homo sapiens.
The next test addresses Histone deacetylase 1 (Homo sapiens, UniProt Q13547).
In test [1] the target is T1, Protein deacetylase HDAC6 (Homo sapiens, UniProt Q9UBN7).
T1 sequence (Q9UBN7 whole entry): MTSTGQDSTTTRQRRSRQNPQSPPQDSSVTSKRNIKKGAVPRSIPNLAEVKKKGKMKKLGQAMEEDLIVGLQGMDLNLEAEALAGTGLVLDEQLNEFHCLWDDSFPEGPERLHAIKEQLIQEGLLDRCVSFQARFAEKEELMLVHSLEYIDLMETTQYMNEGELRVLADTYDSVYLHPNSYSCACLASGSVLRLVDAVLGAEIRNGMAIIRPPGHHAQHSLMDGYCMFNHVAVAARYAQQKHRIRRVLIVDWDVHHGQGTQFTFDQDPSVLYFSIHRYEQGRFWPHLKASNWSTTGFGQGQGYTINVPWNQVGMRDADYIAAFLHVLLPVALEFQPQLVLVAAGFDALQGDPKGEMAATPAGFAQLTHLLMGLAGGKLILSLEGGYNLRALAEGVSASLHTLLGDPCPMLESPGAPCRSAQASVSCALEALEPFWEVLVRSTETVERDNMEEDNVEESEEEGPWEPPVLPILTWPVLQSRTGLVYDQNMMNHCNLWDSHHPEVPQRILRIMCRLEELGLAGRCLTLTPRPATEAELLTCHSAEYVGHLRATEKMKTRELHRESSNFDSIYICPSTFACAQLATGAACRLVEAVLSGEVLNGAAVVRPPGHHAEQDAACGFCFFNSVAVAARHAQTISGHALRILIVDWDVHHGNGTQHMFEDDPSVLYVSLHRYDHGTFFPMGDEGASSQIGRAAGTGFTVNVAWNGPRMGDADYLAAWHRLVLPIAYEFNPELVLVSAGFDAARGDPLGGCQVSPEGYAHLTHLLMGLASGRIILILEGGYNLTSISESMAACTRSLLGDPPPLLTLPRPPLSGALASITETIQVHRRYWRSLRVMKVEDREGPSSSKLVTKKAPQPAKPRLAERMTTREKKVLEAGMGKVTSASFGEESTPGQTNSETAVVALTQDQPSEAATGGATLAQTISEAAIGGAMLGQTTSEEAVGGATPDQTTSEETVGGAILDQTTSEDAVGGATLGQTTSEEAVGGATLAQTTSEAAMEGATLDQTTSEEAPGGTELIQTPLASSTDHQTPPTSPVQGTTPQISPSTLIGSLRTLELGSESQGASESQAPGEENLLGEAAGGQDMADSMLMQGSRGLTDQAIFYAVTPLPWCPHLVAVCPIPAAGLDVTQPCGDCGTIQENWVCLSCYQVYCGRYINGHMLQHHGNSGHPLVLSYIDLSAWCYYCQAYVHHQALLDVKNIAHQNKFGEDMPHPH
Description: Inhibition of HDAC6 in presence of DTT

Test [2] has as its system MCF7. The experiment in a line: Growth inhibition of MCF7 cells. In kind it is functional, cell-based. Conditions: Homo sapiens.
Test [3] concerns MCF7. Description: Induction of p21cip1/waf1 promoter activity in MCF7 cells after 24 hrs. In kind it is functional, cell-based. The settings on record: Homo sapiens.

Structures are written as SMILES. Active and inactive are the calls of the source. The calls are words filed in the database; no cut-off is given here.

Sequence of Histone deacetylase 1 (Q13547 whole entry): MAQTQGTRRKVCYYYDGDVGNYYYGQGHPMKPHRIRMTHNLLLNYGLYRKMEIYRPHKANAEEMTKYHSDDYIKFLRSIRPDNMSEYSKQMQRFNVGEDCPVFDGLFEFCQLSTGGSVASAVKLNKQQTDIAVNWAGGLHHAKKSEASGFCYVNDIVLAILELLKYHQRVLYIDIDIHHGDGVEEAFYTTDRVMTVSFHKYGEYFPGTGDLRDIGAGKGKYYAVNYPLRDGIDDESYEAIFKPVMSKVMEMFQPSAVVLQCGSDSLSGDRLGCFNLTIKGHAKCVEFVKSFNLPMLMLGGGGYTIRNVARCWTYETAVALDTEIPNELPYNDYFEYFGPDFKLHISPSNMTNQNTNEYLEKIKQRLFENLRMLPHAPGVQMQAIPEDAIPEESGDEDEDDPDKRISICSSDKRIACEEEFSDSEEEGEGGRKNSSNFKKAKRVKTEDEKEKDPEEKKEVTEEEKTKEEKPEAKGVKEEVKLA
Description for Histone deacetylase 1: Inhibition of HDAC1 in presence of DTT

In the case of `CC(C)[C@H]1NC(=O)C[C@H]2/C=C/CCSSC[C@@H](NC1=O)C(=O)N[C@H](C(C)C)C(=O)NCC(=O)O2`, the IC50 at Histone deacetylase stood at 7.2 nM; at Histone deacetylase 1, 1.6 nM; in test [1], 897 nM; in the test with MCF7 [2] it was 5.1 nM.

Consider `CC(C)[C@H]1NC(=O)[C@H]2CSSCC/C=C/[C@H](CC(=O)N[C@H](C)C(=O)N2)OC(=O)CNC1=O`, for which the IC50 at Histone deacetylase came to 15 nM; on Histone deacetylase 1 it was 1.6 nM; in test [1], 881 nM; with MCF7 [2] it was 37 nM. Moreover, in the test on MCF7 [3], the result was Active.

As for `CC(C)[C@H]1NC(=O)[C@@H](C)NC(=O)[C@@H](C)NC(=O)C[C@@H](/C=C/CCS)OC(=O)CNC1=O`, the IC50 is 7 nM at Histone deacetylase, 17.5 nM against Histone deacetylase 1, 4920 nM in test [1] and > 1000 nM with MCF7 [2].

In the case of `COC(=O)CNC(=O)[C@H](NC(=O)[C@H]1CSSCC/C=C/[C@@H](O)CC(=O)N[C@H](C)C(=O)N1)C(C)C`, the half-inhibitory concentration (IC50) at Histone deacetylase is > 3200 nM; in the test on MCF7 [2], > 1000 nM.

For the compound `CC(=O)SCC/C=C/[C@@H]1CC(=O)N[C@H](C)C(=O)N[C@H](C)C(=O)N[C@H](C(C)C)C(=O)NCC(=O)O1`, the IC50 at Histone deacetylase is 242 nM; at Histone deacetylase 1, > 100 nM; in test [1], > 10000 nM; with MCF7 [2], 55 nM.

By IC50 is commonly meant the concentration at which inhibition is half-maximal.
